Data taken from ChEMBL document CHEMBL5550119, “Design, synthesis, and evaluation of formylpiperazine analogs of Ferrostatin-1 as novel improved ferroptosis inhibitors” (Bioorg Med Chem, 2024).
Values after ≈ are worked out from the molar mass of the structure shown. Active and inactive are the calls of the source. No cut-off for these calls is given here.

Columns and labels:
[1] = Antioxidant activity assessed as DPPH radical scavenging activity incubated under dark condition for 30 mins by absorbance based analysis; type: functional
[2] = tested on: HUVEC; test: Anti-ferroptosis activity in HUVEC cells assessed as inhibition of erastin-induced ferroptosis by measuring lethality suppression incubated for 24 hrs by SRB assay; type: functional, cell-based; conditions: Homo sapiens
[3] = Antioxidant activity assessed as DPPH radical scavenging activity at 50 uM incubated under dark condition for 30 mins by absorbance based analysis relative to control; type: functional
[4] = Solubility of compound in PBS buffer at pH 7.4 at 3.13 to 200 uM incubated for 2 hrs by turbidity based assay; type: physicochemical; conditions: dose 3.13-200 µM
[5] = Metabolic stability in human liver microsomes assessed as half life at […] incubated for 2 hrs in presence of NADPH by LC-MS/MS analysis; type: ADME, Microsome
[6] = tested on: HUVEC; test: Anti-ferroptosis activity in erastin-induced HUVEC cells assessed as increase in GPX4 protein level at 10 uM incubated for 24 hrs by Western blot analysis; type: functional, cell-based; conditions: Homo sapiens
[7] = tested on: HUVEC; test: Anti-ferroptosis activity in erastin-induced HUVEC cells assessed as reduction in malondialdehyde level at 10 uM incubated for 24 hrs; type: functional, cell-based; conditions: Homo sapiens
[8] = Metabolic stability in rat liver microsomes assessed as half life at […] incubated for 2 hrs in presence of NADPH by LC-MS/MS analysis; type: ADME, Microsome
[9] = tested on: HUVEC; test: Anti-ferroptosis activity in erastin-induced HUVEC cells assessed as reduction in lipid peroxidation level at 10 uM incubated for 24 hrs; type: functional, cell-based; conditions: Homo sapiens
[10] = tested on: HUVEC; test: Anti-ferroptosis activity in erastin-induced HUVEC cells assessed as increase in GSH level at 10 uM incubated for 24 hrs; type: functional, cell-based; conditions: Homo sapiens
[11] = tested on: HUVEC; test: Anti-ferroptosis activity in erastin-induced HUVEC cells assessed as reduction in ROS level by measuring reduction in DCF fluorescence intensity at 10 uM incubated for 24 hrs by DCFH-DA fluorescent probe based fluorescence microscopic analysis; type: functional, cell-based; conditions: Homo sapiens
[12] = tested on: HUVEC; test: Anti-ferroptosis activity in erastin-induced HUVEC cells assessed as reduction in cytoplasmic ferrous ion level at 10 uM incubated for 24 hrs by FerroOrange fluorescent probe based fluorescence microscopic analysis; type: functional, cell-based; conditions: Homo sapiens
[13] = tested on: HUVEC; test: Anti-ferroptosis activity in erastin-induced HUVEC cells assessed as reduction in mitochondrial impairment by measuring reduction in number of JC-1 monomers at 10 uM incubated for 24 hrs by JC-1 fluorescent probe based fluorescence microscopic analysis; type: functional, cell-based; conditions: Homo sapiens
[14] = tested on: HUVEC; test: Anti-ferroptosis activity in HUVEC cells assessed as inhibition of erastin-induced ferroptosis by measuring lethality suppression at 10 uM incubated for 24 hrs by SRB assay; type: functional, cell-based; conditions: Homo sapiens

Row | Compound | IC50 [1] [µM] | EC50 [2] [µM] | Activity [3] [%] | solubility kinetic at 2 h [4] [µM] | half-life [5] [min] | Activity [6] | Activity [7] | half-life [8] [min] | Activity [9] | Activity [10] | Activity [11] | Activity [12] | Activity [13] | Activity [14]
1 | O=C(c1ccc(NC2CCCCC2)c(NCc2ccccc2)c1)N1CCN(Cc2ccncc2)CC1 | 43.6 | 0.79 | 55.4 | 20 (≈ 9.67 µg/mL) |  |  |  |  |  |  |  |  |  | 
2 | COc1ccc(Br)c(CN2CCN(C(=O)c3ccc(NC4CCCCC4)c(NCc4ccccc4)c3)CC2)c1 | 41.3 | 0.68 | 63.8 | 20 (≈ 11.8 µg/mL) |  |  |  |  |  |  |  |  |  | 
3 | CS(=O)(=O)c1ccc(CN2CCN(C(=O)c3ccc(NC4CCCCC4)c(NCc4ccccc4)c3)CC2)cc1 | 28.9 | 0.5 | 54 | 28.6 (≈ 16 µg/mL) | 50.2 | Active | Active | 35.7 | Active | Active | Active | Active | Active | 
4 | CN1CCN(C(=O)c2ccc(NC3CCCCC3)c(NCc3ccccc3)c2)CC1 |  |  |  |  |  |  |  |  |  |  |  |  |  | inactive
5 | CCOC(=O)c1ccc(NC2CCCCC2)c(NCc2ccccc2)c1 | 46.8 |  | 56.4 | 6.2 (≈ 2.19 µg/mL) |  |  |  |  |  |  |  |  |  | 
6 | O=C(c1ccc(NC2CCCCC2)c(NCc2ccccc2)c1)N1CCN(Cc2ccc(-c3ccccc3)c(-c3ccccc3)c2)CC1 | 42.9 | 0.61 | 54 | 22.2 (≈ 14.1 µg/mL) |  |  |  |  |  |  |  |  |  | 
7 | CCOC(=O)c1ccc(NC2CCCCC2)c(N)c1 | 54.3 |  | 52.5 | > 200 | 16.8 | Active |  | 18.4 |  | Active | Active | Active | Active | 
8 | O=C(c1ccc(NC2CCCCC2)c(NCc2ccccc2)c1)N1CCN(Cc2ccc(F)cc2Br)CC1 | 60.8 | 0.73 | 50.5 | 28.6 (≈ 16.6 µg/mL) |  |  |  |  |  |  |  |  |  | 
